How the values were obtained:
[1] = system: N2O production from corn, alfalfa, and sorghum silages (denitrifiers); experiment: N2O production from laboratory mini silos (simulated silage) with different treatments, fourth part of the study; conditions: for reduction of N2O production: inoculant + additive 0.1% (w/w), corn, alfalfa, sorghum silages, FIG. 4A, three replicates
Description: GHG production from simulated silage. Laboratory experiments were performed to estimate the GHG emission potentials from silage conservation (i.e. anaerobic conservation). In a first part of the study, N2O production from forage silos was studied. The forages used were corn, alfalfa, and sorghum. The mini silos consisted of 1 L glass jars connected to a 1-L Tedlar bag. The forage was chopped into 2-3 cm pieces with a laboratory chopper and ensiled in laboratory mini silos at a bulk density of 700 kg/m^3 (700 grams per silo). The experiments were performed in an incubator at 30° C. in the dark, and the produced gas volume and composition were measured periodically for 30 days.
(§1) The treatments compared in this research consisted of (1) no treatment, (2) commercial silage inoculant (Pioneer® inoculant), (3) inoculant+chlorate (0.1%, w/w), and (4) inoculant+acetate (0.1%, w/w). Three replicates for each treatment were performed.
In the fourth part of the study, three replicates for each treatment were added to forage silos prepared as described in paragraph [0052].

[2] = system: N2O production from simulated silage (denitrifiers); experiment: N2O production from alfalfa mini silos (simulated silage) with different treatments, fifth part of the study; conditions: for effect on N2O production: amendment 0.1% (w/w), P<0.001
Description: In a second part of the study, N2O and CH4 production from forage silos were studied. The forage used was second cut alfalfa (HVX MegaTron) harvested at the early flower stage. The mini silos consisted of 1 L glass jars connected to a 1-L Tedlar bag. The forage was chopped into 2-3 cm pieces with a laboratory chopper and ensiled in laboratory mini silos at a bulk density of 700 kg/m^3 (700 grams per silo). The experiments were performed in an incubator at 30° C. in the dark, and the produced gas volume and composition were measured periodically for 35 days.
as §1
In the fifth part of the study, three replicates for each treatment were added to forage silos prepared as described in paragraph [0054].

[O-][Cl+2]([O-])O [chlorate]
reduction of N2O production [1]: up to 99%
reduction of N2O ([1]; lower concentrations up to 0.01% (w/w), alfalfa silage, FIG. 4B): higher than 90%
effect on N2O production ([2]; preliminary study): significantly repressed
reduction of N2O production (fold) ([2]; inoculant + 0.1% (w/w) chlorate, alfalfa silage, FIG. 4C): more than ten times

CC(=O)O [acetate]
reduction of N2O production [1]: up to 25%
reduction of total amount of N2O ([2]; acetate as a sodium salt, 1 g per kg-forage, preliminary study): 25%
effect on N2O production ([2]; preliminary study): significantly repressed
reduction of N2O production ([2]; inoculant + 0.1% (w/w) acetate, alfalfa silage, P<0.01, FIG. 4C): 25%

— patent publication US20250049078A1, “ECO-FRIENDLY ADDITIVES FOR HAY AND SILAGE INOCULANTS MINIMIZING GREENHOUSE GAS EMISSIONS” (Kansas State University Research Foundation, priority 2021, published 2025)
